From ChEMBL document CHEMBL5154674, “ARN25068, a versatile starting point towards triple GSK-3β/FYN/DYRK1A inhibitors to tackle tau-related neurological disorders” (Eur J Med Chem, 2022)

Tested on: U2OS
Experiment: Cytotoxic effect on human U2OS cells transfected with Tau0N4R-TM-tGFP at 25 to 100 uM by fluorescence based microscopy
Format: toxicity, cell-based
Conditions: dose 25-100 µM

**Q.** How did the Activity turn out when `c1ccc(CNc2nc(Nc3cc(C4CC4)[nH]n3)c3sccc3n2)cc1` was run?
**A.** The Activity was “Toxic”.
